For the test, the target named is T1, calcium channel (3H-nitrendipine binding, rabbit heart membranes) (Oryctolagus cuniculus, UniProt P15381).
T1 construct: from tissue; host or cells: rabbit heart (crude membrane pellet)
The test is described as follows: Assay for Inhibition of Nitrendipine Binding. The settings on record: 3H-nitrendipine (0.05-0.50 nM), 90 minutes at 4° C. Here is the method:
Assay for Inhibition of Nitrendipine Binding
Female, New Zealand white rabbits (1-2 kg) are sacrificed by cervical dislocation, and the heart is immediately removed, cleaned and chopped into small pieces. The tissue is homogenized in 5×times volume of 0.05M Hepes buffer, pH 7.4. The homogenate is centrifuged at 4000 g for 10 minutes, and the supernatant is re-centrifuged at 42,000×g for 90 minutes. The resulting membrane pellet is resuspended (0.7 ml/g weight) in 0.05M Hepes, pH 7.4 and stored at […] until used. Each tube of the binding assay contains ^3H-nitrendipine (0.05-0.50 nM), buffer, membranes (0.10 ml), and test compound in a total volume of 1.0 ml. After 90 minutes at 4° C., the bound nitrendipine is separated from the unbound by filtration on Whatman GF/C filters. After rinsing, the filters are dried and counted in a liquid scintillation counter.
Non-specific binding of ^3H-nitrendipine (that amount bound in the presence of excess unlabelled nitrendipine) is subtracted from the total bound to obtain specifically bound radiolabeled nitrendipine. The amount of specifically bound nitrendipine in the presence of a test compound is compared to that amount bound in the absence of a compound. A percent displacement (or inhibition) can then be calculated.

T1 sequence (P15381 whole entry, other chains not shown): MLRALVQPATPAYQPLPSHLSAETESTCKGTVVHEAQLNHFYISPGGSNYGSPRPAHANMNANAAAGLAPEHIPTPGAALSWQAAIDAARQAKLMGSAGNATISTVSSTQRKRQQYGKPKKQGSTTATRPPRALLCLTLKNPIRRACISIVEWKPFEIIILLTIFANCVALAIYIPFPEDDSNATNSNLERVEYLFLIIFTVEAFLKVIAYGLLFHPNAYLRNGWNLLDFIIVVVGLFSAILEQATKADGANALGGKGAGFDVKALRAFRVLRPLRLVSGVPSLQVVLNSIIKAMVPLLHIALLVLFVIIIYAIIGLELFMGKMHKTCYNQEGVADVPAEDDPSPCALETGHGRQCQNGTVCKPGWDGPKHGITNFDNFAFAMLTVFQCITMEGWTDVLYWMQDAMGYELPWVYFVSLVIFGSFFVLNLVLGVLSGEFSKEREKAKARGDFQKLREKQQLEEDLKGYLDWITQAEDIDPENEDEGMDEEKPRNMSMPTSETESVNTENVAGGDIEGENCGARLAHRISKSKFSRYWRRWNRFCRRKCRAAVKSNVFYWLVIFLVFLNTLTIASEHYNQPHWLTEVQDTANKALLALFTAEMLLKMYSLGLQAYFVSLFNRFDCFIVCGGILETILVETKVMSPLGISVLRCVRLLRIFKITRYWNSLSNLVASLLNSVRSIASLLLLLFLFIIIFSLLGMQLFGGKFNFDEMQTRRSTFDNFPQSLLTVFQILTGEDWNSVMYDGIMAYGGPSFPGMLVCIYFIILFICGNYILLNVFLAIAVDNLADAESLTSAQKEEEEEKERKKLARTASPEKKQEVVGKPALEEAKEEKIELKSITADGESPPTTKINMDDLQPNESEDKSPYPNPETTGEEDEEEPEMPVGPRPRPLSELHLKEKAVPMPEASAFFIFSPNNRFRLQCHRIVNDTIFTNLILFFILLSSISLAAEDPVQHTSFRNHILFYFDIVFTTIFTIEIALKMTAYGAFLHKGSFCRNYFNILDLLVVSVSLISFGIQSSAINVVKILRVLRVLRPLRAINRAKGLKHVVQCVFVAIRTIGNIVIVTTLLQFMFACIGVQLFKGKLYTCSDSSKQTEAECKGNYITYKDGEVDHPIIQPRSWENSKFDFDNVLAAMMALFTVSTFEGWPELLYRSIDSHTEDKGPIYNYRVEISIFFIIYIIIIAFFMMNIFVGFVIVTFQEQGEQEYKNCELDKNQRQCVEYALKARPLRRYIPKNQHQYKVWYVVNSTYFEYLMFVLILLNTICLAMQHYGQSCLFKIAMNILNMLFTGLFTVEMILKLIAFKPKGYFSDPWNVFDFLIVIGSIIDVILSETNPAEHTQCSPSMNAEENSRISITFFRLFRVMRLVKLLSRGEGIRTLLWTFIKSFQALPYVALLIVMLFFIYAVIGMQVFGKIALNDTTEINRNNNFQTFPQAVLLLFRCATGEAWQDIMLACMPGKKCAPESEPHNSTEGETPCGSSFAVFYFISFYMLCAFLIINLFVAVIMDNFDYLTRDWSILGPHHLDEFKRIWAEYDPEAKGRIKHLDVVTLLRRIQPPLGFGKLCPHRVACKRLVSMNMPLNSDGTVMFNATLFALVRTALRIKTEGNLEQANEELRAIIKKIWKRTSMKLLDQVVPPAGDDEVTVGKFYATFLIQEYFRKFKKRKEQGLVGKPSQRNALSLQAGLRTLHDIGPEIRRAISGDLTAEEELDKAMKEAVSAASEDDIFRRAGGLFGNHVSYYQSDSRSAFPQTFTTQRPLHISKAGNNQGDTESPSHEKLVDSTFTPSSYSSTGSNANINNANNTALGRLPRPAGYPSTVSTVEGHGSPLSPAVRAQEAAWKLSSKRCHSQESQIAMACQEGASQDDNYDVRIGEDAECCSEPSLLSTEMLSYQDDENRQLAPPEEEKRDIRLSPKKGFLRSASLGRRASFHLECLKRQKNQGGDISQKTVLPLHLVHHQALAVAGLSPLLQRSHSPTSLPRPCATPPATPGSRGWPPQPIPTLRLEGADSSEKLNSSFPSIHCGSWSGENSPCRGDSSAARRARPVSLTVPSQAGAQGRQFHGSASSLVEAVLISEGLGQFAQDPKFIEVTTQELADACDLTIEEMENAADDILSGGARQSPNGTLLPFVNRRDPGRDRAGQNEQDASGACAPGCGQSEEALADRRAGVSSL
T1 sequence (P13806 27-960 partner limits assumed, other chains not shown): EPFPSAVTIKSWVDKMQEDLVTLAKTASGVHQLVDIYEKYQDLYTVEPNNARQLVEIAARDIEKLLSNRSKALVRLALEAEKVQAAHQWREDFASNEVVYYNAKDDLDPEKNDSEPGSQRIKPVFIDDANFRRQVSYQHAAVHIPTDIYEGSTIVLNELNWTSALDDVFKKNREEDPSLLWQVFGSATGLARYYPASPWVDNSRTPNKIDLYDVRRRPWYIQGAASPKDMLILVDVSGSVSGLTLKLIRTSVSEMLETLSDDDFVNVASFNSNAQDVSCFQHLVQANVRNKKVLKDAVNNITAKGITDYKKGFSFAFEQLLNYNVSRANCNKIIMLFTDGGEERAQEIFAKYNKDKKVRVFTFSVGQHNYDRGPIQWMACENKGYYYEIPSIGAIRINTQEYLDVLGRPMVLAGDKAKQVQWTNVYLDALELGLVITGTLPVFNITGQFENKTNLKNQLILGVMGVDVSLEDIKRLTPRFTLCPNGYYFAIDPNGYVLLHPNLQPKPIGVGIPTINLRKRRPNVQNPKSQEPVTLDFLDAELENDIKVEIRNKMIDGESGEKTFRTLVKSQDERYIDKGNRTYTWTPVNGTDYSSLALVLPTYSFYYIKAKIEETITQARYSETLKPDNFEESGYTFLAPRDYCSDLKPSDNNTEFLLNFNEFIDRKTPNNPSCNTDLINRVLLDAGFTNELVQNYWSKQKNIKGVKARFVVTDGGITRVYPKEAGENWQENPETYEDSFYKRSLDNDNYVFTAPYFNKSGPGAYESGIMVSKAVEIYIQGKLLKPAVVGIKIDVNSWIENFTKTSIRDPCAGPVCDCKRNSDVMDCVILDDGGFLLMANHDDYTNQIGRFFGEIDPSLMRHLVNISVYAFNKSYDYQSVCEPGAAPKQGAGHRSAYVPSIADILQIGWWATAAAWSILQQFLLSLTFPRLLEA
T1 sequence (P13806 961-1106 partner limits assumed, other chains not shown): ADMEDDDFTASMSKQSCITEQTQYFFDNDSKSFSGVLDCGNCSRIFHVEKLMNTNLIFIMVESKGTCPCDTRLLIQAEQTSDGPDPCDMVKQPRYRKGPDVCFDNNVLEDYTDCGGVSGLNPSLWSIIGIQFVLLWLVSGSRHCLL

As a reminder, the IC50 is the concentration that inhibits the measured activity by half. On to `COC(=O)C1=C(C)NC2=C(C1c1ccccc1Cl)S(=O)(=O)CCc1ccccc12` (centres unmarked) [Compound 1, [3]Benzothiepino[1,2-b]pyridine-3-carboxylic acid, 4-(2-chlorophenyl)-1,4,6,7-tetrahydro-2-methyl-, methyl ester, 5,5-dioxide], for which the IC50 stood at 612 nM. On to `CC1=C(C(=O)OCCN(C)Cc2ccccc2)C(c2cccc(Cl)c2Cl)C2=C(N1)c1ccccc1CCS2(=O)=O` (centres unmarked) [Compound 2, [3]Benzothiepino[1,2-b]pyridine-3-carboxylic acid, 4-(2,3-dichlorophenyl)-1,4,6,7-tetrahydro-2-methyl-, 2-[methyl(phenylmethyl)amino]ethyl ester, 5,5-dioxide], for which the IC50 stood at 118 nM.

Regarding `COC(=O)C1=C(C)NC2=C(C1c1cccc(Cl)c1Cl)S(=O)(=O)CCc1ccccc12` (centres unmarked) [Compound 3, [3]Benzothiepino[1,2-b]pyridine-3-carboxylic acid, 4-(2,3-dichlorophenyl)-1,4,6,7-tetrahydro-2-methyl-, methyl ester, 5,5-dioxide], the IC50 turned out to be 38 nM. For `COC(=O)C1=C(C)NC2=C(C1c1c(F)c(F)c(F)c(F)c1F)S(=O)(=O)CCc1ccccc12` (centres unmarked) [Compound 4, [3]Benzothiepino[1,2-b]pyridine-3-carboxylic acid, 1,4,6,7-tetrahydro-2-methyl-4-(pentafluorophenyl)-, methyl ester, 5,5-dioxide], the 50% inhibitory concentration (IC50) stood at 261 nM.

With `COC(=O)C1=C(C)NC2=C(C1c1ccccc1[N+](=O)[O-])S(=O)(=O)CCc1ccccc12` (centres unmarked) [Compound 5, [3]Benzothiepino[1,2-b]pyridine-3-carboxylic acid, 1,4,6,7-tetrahydro-2-methyl-4-(2-nitrophenyl)-, methyl ester, 5,5-dioxide], the concentration for half-maximal inhibition (IC50) was determined as 1900 nM. The same measure for `COC(=O)C1=C(C)NC2=C(C1c1cccc(Cl)c1)S(=O)(=O)CCc1ccccc12` (centres unmarked) [Compound 6, [3]Benzothiepino[1,2-b]pyridine-3-carboxylic acid, 4-(3-chlorophenyl)-1,4,6,7-tetrahydro-2-methyl-, methyl ester, 5,5-dioxide]: 337 nM. The same measure for `CC1=C(C(=O)OCCN(C)Cc2cccs2)C(c2cccc(Cl)c2Cl)C2=C(N1)c1ccccc1CCS2(=O)=O` (centres unmarked) [Compound 7, [3]Benzothiepino[1,2-b]pyridine-3-carboxylic acid, 4-(2,3-dichlorophenyl)-1,4,6,7-tetrahydro-2-methyl-, 2-[methyl(2-thienylmethyl)amino]ethyl ester, 5,5-dioxide]: 38 nM; for `COC(=O)C1=C(C)NC2=C(C1c1cccc([N+](=O)[O-])c1)S(=O)(=O)CCc1ccccc12` (centres unmarked) [Compound 8, [3]Benzothiepino[1,2-b]pyridine-3-carboxylic acid, 1,4,6,7-tetrahydro-2-methyl-4-(3-nitrophenyl)-, methyl ester, 5,5-dioxide]: 261 nM; for `COC(=O)C1=C(C)NC2=C(C1c1c(O)cccc1Cl)S(=O)(=O)CCc1ccccc12` (centres unmarked) [Compound 9, [3]Benzothiepino[1,2-b]pyridine-3-carboxylic acid, 4-(2-chloro-6-hydroxyphenyl)-1,4,6,7-tetrahydro-2-methyl-, methyl ester, 5,5-dioxide]: 1300 nM.

For `CC1=C(C(=O)OCCN(C)Cc2cccs2)C(c2ccccc2Cl)C2=C(N1)c1ccccc1CCS2(=O)=O` (centres unmarked) [Compound 10, [3]Benzothiepino[1,2-b]pyridine-3-carboxylic acid, 4-(2-chlorophenyl)-1,4,6,7-tetrahydro-2-methyl-, 2-[methyl(2-thienylmethyl)amino]ethyl ester, 5,5-dioxide], the IC50 came to 99 nM. The same measure for `CC1=C(C(=O)OCCN(C)Cc2ccccc2)C(c2ccccc2Cl)C2=C(N1)c1ccccc1CCS2(=O)=O` (centres unmarked) [Compound 11, [3]Benzothiepino[1,2-b]pyridine-3-carboxylic acid, 4-(2-chlorophenyl)-1,4,6,7-tetrahydro-2-methyl-, 2-[methyl(phenylmethyl)amino]ethyl ester, 5,5-dioxide]: 453 nM.

Source of the values: patent US6410553B1, “Benzosulfones and related compositions and methods” (Ortho-McNeil Pharmaceutical, Inc., priority 2000, dated 2002).
